One experiment concerns MCF7. Kind of experiment: Cytotoxicity against human MCF7 cells assessed as reduction in cell viability incubated for 96 hrs by MTT method. The format is functional, cell-based. Conditions: MCF7, 96 h. (Tetrazolium assays rely on reduction of a dye to a coloured formazan, in cell work by metabolically active cells.)
The test system of the next experiment is MDA-MB-468. Kind of experiment: Cytotoxicity against human MDA-MB-468 cells assessed as reduction in cell viability incubated for 96 hrs by MTT method. Format: functional, cell-based. Conditions: MDA-MB-468, 96 h.
Another experiment relates to MDA-MB-231. In words: Cytotoxicity against human MDA-MB-231 cells assessed as reduction in cell viability incubated for 96 hrs by MTT method. Conditions: MDA-MB-231, 96 h. Format: functional, cell-based.
For a further experiment, the system named is L02. In words: Cytotoxicity against human L02 cells assessed as reduction in cell viability incubated for 96 hrs by MTT method. The format is cell-based. Conditions: L02, 96 h.
For another experiment, the system named is HEK293. Kind of experiment: Cytotoxicity against HEK-293 cells assessed as reduction in cell viability incubated for 96 hrs by MTT method. Conditions: Homo sapiens, HEK293, 96 h. The format is cell-based.
The next experiment has as its system MCF-10A. In words: Cytotoxicity against human MCF-10A cells assessed as reduction in cell viability incubated for 96 hrs by MTT method. Format: cell-based.

From ChEMBL document CHEMBL5036330, “Discovery of 8,9-seco-ent-Kaurane Diterpenoids as Potential Leads for the Treatment of Triple-Negative Breast Cancer” (J Med Chem, 2021) come the findings set out here.

As usually defined, the IC50 is the concentration at which inhibition is half-maximal. `C=CC(=O)O[C@@H]1C[C@@H]2C(C)(C)CC[C@@H](O)[C@@]2(C)C(=O)CC[C@@H]2C=C1C(=O)C2=C`: the IC50 in the experiment on MCF7 was 1220 nM; with MDA-MB-468 it was 382 nM; in the experiment on MDA-MB-231 it was 166 nM.

For `C=C1C(=O)C2=C[C@H]1CCC(=O)[C@@]1(C)[C@H](C[C@H]2OCC)C(C)(C)CC[C@H]1OC(C)=O`, the IC50 in the experiment with MCF7 is 266 nM; in the experiment with MDA-MB-468 it was 236 nM; with MDA-MB-231 it was 677 nM.

As for `C=C1C(=O)C2=C[C@H]1CCC(=O)[C@]1(C)[C@H](O)CCC(C)(C)[C@H]1C[C@H]2OC(=O)CCl`, the results for the IC50 with MCF7, with MDA-MB-468 and with MDA-MB-231 were 1090 nM, 909 nM and 551 nM, respectively.

For `C=C1C(=O)C2=C[C@H]1CCC(=O)[C@@]1(C)[C@H](C[C@H]2O)C(C)(C)CC[C@H]1OC(C)=O`, the IC50 with MCF7 was 120 nM; in the experiment with MDA-MB-468, 228 nM; with MDA-MB-231 it was 177 nM.

For `C=CC(=O)O[C@@H]1C[C@@H]2C(C)(C)CC[C@@H](OC(=O)C=C)[C@@]2(C)C(=O)CC[C@@H]2C=C1C(=O)C2=C`, the IC50 came to 1120 nM with MCF7, 395 nM in the experiment with MDA-MB-468 and 237 nM in the experiment with MDA-MB-231.

Regarding `CC1(C)C(=O)CC[C@]2(C)[C@@H]1CC[C@@]13C[C@@H](CC[C@H]12)[C@@](O)(CO)C3`, the IC50 in the experiment on MCF7, in the experiment on MDA-MB-468 and with MDA-MB-231 was greater than 5000 nM in each case.

`C=C1C(=O)C2=C[C@H]1CCC(=O)[C@]1(C)C(=O)CCC(C)(C)[C@H]1C[C@H]2O`: the IC50 stood at 379 nM in the experiment on MCF7, 194 nM in the experiment on MDA-MB-468 and 124 nM in the experiment on MDA-MB-231.

Turning to `CC1(C)C(=O)CC[C@]2(C)[C@@H]1CC[C@]13C[C@H]4C[C@H](O[C@@]4(C)C1)[C@H]32`, the IC50 in the experiment with MCF7, in the experiment on MDA-MB-468 and in the experiment on MDA-MB-231 was greater than 5000 nM in each case.

On to `C=C1C(=O)C2=C[C@H]1CCC(=O)[C@]1(C)[C@H](O)CCC(C)(C)[C@H]1C[C@H]2OC`, for which the figures for the IC50 in the experiment with MCF7, with MDA-MB-468 and in the experiment with MDA-MB-231 were 215 nM, 121 nM and 185 nM, respectively.

Regarding `C=C1C(=O)C2=C[C@H]1CCC(=O)[C@@]1(C)[C@H](C[C@H]2OC(C)=O)C(C)(C)CC[C@H]1OC(C)=O`, the values for the IC50 in the experiment with MCF7, in the experiment with MDA-MB-468 and in the experiment on MDA-MB-231 were 226 nM, 762 nM and 978 nM, respectively.

Turning to `C[C@H]1C(=O)C2=C[C@H]1CCC(=O)[C@]1(C)[C@H](O)CCC(C)(C)[C@H]1C[C@H]2O`, the IC50 in the experiment with MCF7, in the experiment on MDA-MB-468 and with MDA-MB-231 was greater than 5000 nM in each case.

With `COc1cccc2c1C(=O)c1c(O)c3c(c(O)c1C2=O)C[C@@](O)(C(=O)CO)C[C@@H]3O[C@H]1C[C@H](N)[C@H](O)[C@H](C)O1` [DOXORUBICIN], the IC50 is 256 nM with L02; 106 nM in the experiment with HEK293; 52.1 nM in the experiment with MDA-MB-468; 33 nM in the experiment with MCF-10A; 80.5 nM with MDA-MB-231.

As to `C=C1C(=O)C2=C[C@H]1CCC(=O)[C@@]1(C)[C@H](C[C@H]2OC(=O)CCl)C(C)(C)CC[C@H]1OC(C)=O`, the values for the IC50 with MCF7, in the experiment on MDA-MB-468 and in the experiment on MDA-MB-231 were 235 nM, 643 nM and 1080 nM, respectively.

As to `C[C@H]1C(=O)[C@]23C[C@H]1CC[C@@]2(O)[C@]1(C)[C@H](O)CCC(C)(C)[C@H]1C[C@H]3O`, the IC50 in the experiment with MCF7, in the experiment on MDA-MB-468 and with MDA-MB-231 was greater than 5000 nM each time.

For the compound `C=C1C(=O)C2=C[C@H]1CCC(=O)[C@]1(C)[C@H](O)CCC(C)(C)[C@H]1C[C@H]2OC(=O)c1ccccc1`, the IC50 is 999 nM with MCF7, 301 nM in the experiment on MDA-MB-468 and 466 nM with MDA-MB-231.

With `C=C1C(=O)C2=C[C@H]1CCC(=O)[C@]1(C)C(=O)CCC(C)(C)[C@H]1C[C@H]2OC(=O)c1ccccc1`, the IC50 with MCF7 came out at 882 nM; with MDA-MB-468, 2070 nM; in the experiment with MDA-MB-231 it was 2000 nM.

Regarding `C=C1C(=O)C2=C[C@H]1CCC(=O)[C@]1(C)C(=O)CCC(C)(C)[C@H]1C[C@H]2OC(=O)CCl`, the values for the IC50 with MCF7, in the experiment with MDA-MB-468 and in the experiment on MDA-MB-231 were 505 nM, 345 nM and 1610 nM, respectively.

For `C=C1C(=O)[C@]23O[C@H]2[C@H]1CCC(=O)[C@]1(C)[C@H](O)CCC(C)(C)[C@H]1C[C@H]3O`, the IC50 in the experiment on MCF7 came out at 1600 nM; with MDA-MB-468, 319 nM; in the experiment with MDA-MB-231, 473 nM.

Regarding `C=C(C)CC(=O)O[C@@H]1C[C@@H]2C(C)(C)CC[C@@H](O)[C@@]2(C)C(=O)CC[C@@H]2C=C1C(=O)C2=C`, the IC50 with MCF7 was 1190 nM; with MDA-MB-468, 890 nM; in the experiment on MDA-MB-231 it was 564 nM.

As to `C=C1C(=O)C2=C[C@H]1CCC(=O)[C@]1(C)[C@H](O)CCC(C)(C)[C@H]1C[C@H]2OC(=O)CC`, the IC50 was 999 nM in the experiment on MCF7, 893 nM in the experiment on MDA-MB-468 and 983 nM in the experiment with MDA-MB-231.

Consider `C=C1C(=O)C2=C[C@H]1CCC(=O)[C@]1(C)C(=O)CCC(C)(C)[C@H]1C[C@H]2OC(C)=O`, for which the figures for the IC50 in the experiment with MCF7, in the experiment on MDA-MB-468 and in the experiment on MDA-MB-231 were 538 nM, 215 nM and 28.7 nM, respectively.

Take `CC1(C)C(=O)CC[C@]2(C)[C@@H]1CC[C@@]13C[C@@H](CC[C@H]12)[C@@H](CO)C3`: the IC50 in the experiment with MCF7, in the experiment with MDA-MB-468 and in the experiment on MDA-MB-231 was greater than 5000 nM each time.

In the case of `C=C1C(=O)O[C@H]2C3=C(CC[C@@H]12)[C@@]1(C)[C@H](CC3=O)C(C)(C)CC[C@H]1OC(C)=O`, the IC50 in the experiment on MCF7 amounted to 1240 nM; in the experiment with MDA-MB-468 it was 842 nM; with MDA-MB-231 it was 1770 nM.

`C=C1C(=O)C2=C[C@H]1CCC(=O)[C@]1(C)[C@H](O)CCC(C)(C)[C@H]1C[C@H]2OC(C)=O`: the IC50 with MCF7 was determined as 587 nM; in the experiment on MDA-MB-468, 257 nM; in the experiment on MDA-MB-231 it was 561 nM.

For the compound `C=C1C(=O)[C@@]23[C@H](O)C[C@@H]4C(C)(C)CC[C@@H](O)[C@@]4(C)[C@]2(O)CC[C@@H]1[C@H]3O`, the IC50 with MCF7 is 248 nM; in the experiment with MDA-MB-468 it was 116 nM; in the experiment with MDA-MB-231, 153 nM.
